Results reported in patent US7148232B2, “Oxazolo, thiazolo and selenazolo [4,5-c]-quinolin-4-amines and analogs thereof” (3M Innovative Properties Company, priority 1998, dated 2006).
“And” between values parts separate entries of the source, which are not always exact repeats. Equal entries are not always repeated.

Columns and labels:
[1] = test system: interferon (α); test: Cytokine induction in human cells: interferon (α) secreted by PBMCs (ELISA or bioassay); format: cell-based; settings: 18 to 24 hours
Method: (§1) An in vitro human blood cell system was used to assess cytokine induction by compounds of the invention.
(§2) Whole blood is collected by venipuncture into EDTA vacutainer tubes from healthy human donors. […] The PBMC suspension is added to 48 well flat bottom sterile tissue culture plates (Costar, Cambridge, Mass. or Becton Dickinson Labware, Lincoln Park, N.J.) containing an equal volume of RPMI complete media containing test compound.
(§3) The compounds are solubilized in dimethyl sulfoxide (DMSO). The DMSO concentration should not exceed a final concentration of 1% for addition to the culture wells.
(§4) The solution of test compound is added at 60 μM to the first well containing RPMI complete and serial 3 fold dilutions are made. The PBMC suspension is then added to the wells in an equal volume, bringing the test compound concentrations to the desired range (0.12 to 30 μM). The final concentration of PBMC suspension is 1.5–2×10^6 cells/mL. The plates are covered with sterile plastic lids, mixed gently and then incubated for 18 to 24 hours at 37° C. in a 5% carbon dioxide atmosphere.
(§5) Following incubation the plates are centrifuged for 5–10 minutes at 1000 rpm (˜200×g) at 4° C. The cell culture supernatant is removed with a sterile polypropylene pipet and transferred to sterile polypropylene tubes. Samples are maintained at −30 to −70° C. until analysis. The samples are analyzed for interferon (α) by either ELISA or bioassay and for tumor necrosis factor (α) by ELISA
Interferon is determined by bioassay using A549 human lung carcinoma cells challenged with encephalomyocarditis. […] Briefly stated the method is as follows: A549 cells are incubated with dilutions of samples or a standard interferon at 37° C. for 24 hours. The incubated cells are then infected with an inoculum of encephalomyocarditis virus. The infected cells are incubated for an additional 24 hours at 37° C. before evaluating for viral cytopathic effect. The viral cytopathic effect is quantified by staining with crystal violet followed by visual scoring of the plates. Results are expressed as alpha reference units/mL based on the value obtained for NIH Human Leukocyte IFN standard.
Interferon (α) concentration is determined by ELISA using a Human Multi-Species kit from PBL Biomedical Laboratories, New Brunswick, N.J. according to the manufacturer's instructions.

[2] = test system: tumor necrosis factor (α); test: Cytokine induction in human cells: tumor necrosis factor (α) secreted by PBMCs (ELISA); format: cell-based; settings: 18 to 24 hours
Method: as §1, §2, §3, §4, §5
Tumor necrosis factor (α) (TNF) concentration is determined using ELISA kits available from Genzyme, Cambridge, Mass.; R&D Systems, Minneapolis, Minn.; or Pharmingen, San Diego, Calif. according to the manufacturer's instructions.

[3] = test system: interferon (α); test: Interferon (α) induction in human cells (in vitro human blood cell system, interferon by bioassay); format: cell-based; settings: human PBM's, 48 hours
Method: An in vitro human blood cell system was used to assess interferon induction by compounds of the invention. Activity is based on the measurement of interferon secreted into culture media. Interferon is measured by bioassay.
Whole blood is collected by venipuncture into EDTA vacutainer tubes. Peripheral blood mononuclear cells (PBM's) are separated from whole blood by using either LeucoPREP™ Brand Cell Separation Tubes (available from Becton Dickinson) or Ficoll-Paque® solution (available from Pharmacia LKB Biotechnology Inc, Piscataway, N.J.). […] 200 μL portions of PBM suspension are added to 96 well (flat bottom) sterile tissue culture plates (Becton Dickinson Labware, Lincoln Park, N.J.).
The compounds are solubilized in ethanol, dimethyl sulfoxide or tissue culture water then diluted with tissue culture water, 0.01N sodium hydroxide or 0.01N hydrochloric acid (The choice of solvent will depend on the chemical characteristics of the compound being tested.). Ethanol or DMSO concentration should not exceed a final concentration of 1% for addition to the culture wells. Compounds are initially tested in a concentration range of from about 0.1 μg/mL to about 5 μg/mL. Compounds which show induction at a concentration of 0.5 μg/mL are then tested in a wider concentration range.
The solution of test compound is added in a volume (less than or equal to 50 μL) to the wells containing 200 μL of diluted whole blood or of PBM's in media. Solvent and/or media is added to control wells (wells with no test compound) and as needed to adjust the final volume of each well to 250 μL. The plates are covered with plastic lids, vortexed gently and then incubated for 48 hours at 37° C. with a 5% carbon dioxide atmosphere.
Following incubation, the plates are covered with parafilm and then centrifuged at 1000 rpm for 10 to 15 minutes at 4° C. in a Damon IEC Model CRU-5000 centrifuge. Media (about 200 μL) is removed from 4 to 8 wells and pooled into 2 mL sterile freezing vials. Samples are maintained at −70° C. until analysis.
Interferon is determined by bioassay using A549 human lung carcinoma cells challenged with encephalomyocarditis. The details of the bioassay method have been described by G. L. Brennan and L. H. Kronenberg in “Automated Bioassay of Interferons in Micro-test Plates”, Biotechniques, June/Jul. […] The incubated cells are infected with an inoculum of encephalomyocarditis virus. The infected cells are incubated for an additional period at 37° C. before quantifying for viral cytopathic effect. The viral cytopathic effect is quantified by staining followed by spectrophotometric absorbance measurements. Results are expressed as alpha reference units/mL based on the value obtained for NIH HU IF-L standard.
Compounds of the invention were tested for their ability to induce interferon in human cells using the test method described above.

CCCc1nc2c(N)nc3cc(OC)ccc3c2s1 [Example 64, 7-Methoxy-2-propylthiazolo[4,5-c]quinolin-4-amine]
Interferon (α) Induction ([1]; Dose Concentration 0.12 μM): − | Interferon (α) Induction ([1]; Dose Concentration 0.37 μM): + | Interferon (α) Induction ([1]; Dose Concentration 1.11 μM): + | Interferon (α) Induction ([1]; Dose Concentration 3.33 μM): + | Interferon (α) Induction ([1]; Dose Concentration 10 μM): + | Interferon (α) Induction ([1]; Dose Concentration 30 μM): + | Tumor Necrosis Factor Induction ([2]; Dose Concentration 0.12 μM): + | Tumor Necrosis Factor Induction ([2]; Dose Concentration 0.37 μM): + | Tumor Necrosis Factor Induction ([2]; Dose Concentration 1.11 μM): + | Tumor Necrosis Factor Induction ([2]; Dose Concentration 3.33 μM): + | Tumor Necrosis Factor Induction ([2]; Dose Concentration 10 μM): + | Tumor Necrosis Factor Induction ([2]; Dose Concentration 30 μM): + | melting point: 152 to 154 °C

CCCc1nc2c(N)nc3cc(C)ccc3c2s1 [Example 45, 7-Methyl-2-propylthiazolo[4,5-c]quinolin-4-amine]
Interferon (α) Induction in Human Cells ([3]; Dose Concentration 0.01 μg/mL): − | Interferon (α) Induction in Human Cells ([3]; Dose Concentration 0.05 μg/mL): + | Interferon (α) Induction in Human Cells ([3]; Dose Concentration 0.10 μg/mL): + | Interferon (α) Induction in Human Cells ([3]; Dose Concentration 0.50 μg/mL): + | Interferon (α) Induction in Human Cells ([3]; Dose Concentration 1.0 μg/mL): + | Interferon (α) Induction in Human Cells ([3]; Dose Concentration 5.0 μg/mL): + | melting point: 186 to 187 °C

CCCCCc1nc2c(N)nc3ccccc3c2s1 [Example 16, 2-Pentylthiazolo[4,5-c]quinolin-4-amine]
Interferon (α) Induction in Human Cells ([3]; Dose Concentration 0.01 μg/mL): − | Interferon (α) Induction in Human Cells ([3]; Dose Concentration 0.05 μg/mL): − | Interferon (α) Induction in Human Cells ([3]; Dose Concentration 0.10 μg/mL): − | Interferon (α) Induction in Human Cells ([3]; Dose Concentration 0.50 μg/mL): − | Interferon (α) Induction in Human Cells ([3]; Dose Concentration 1.0 μg/mL): + | Interferon (α) Induction in Human Cells ([3]; Dose Concentration 5.0 μg/mL): + | melting point: 119 to 121 °C

CCc1nc2c(N)nc3ccccc3c2o1 [Example 39, 2-Ethyloxazolo [4,5-c]quinolin-4-amine]
Interferon (α) Induction in Human Cells ([3]; Dose Concentration 0.01 μg/mL): − | Interferon (α) Induction in Human Cells ([3]; Dose Concentration 0.05 μg/mL): − | Interferon (α) Induction in Human Cells ([3]; Dose Concentration 0.10 μg/mL): + | Interferon (α) Induction in Human Cells ([3]; Dose Concentration 0.50 μg/mL): + | Interferon (α) Induction in Human Cells ([3]; Dose Concentration 1.0 μg/mL): + | Interferon (α) Induction in Human Cells ([3]; Dose Concentration 5.0 μg/mL): + | melting point: 175 to 178 °C

COCc1nc2c(N)nc3ccccc3c2s1 [Example 30, 2-(Methoxymethyl)thiazolo[4,5-c]quinolin-4-amine]
Interferon (α) Induction in Human Cells ([3]; Dose Concentration 0.01 μg/mL): − | Interferon (α) Induction in Human Cells ([3]; Dose Concentration 0.05 μg/mL): − | Interferon (α) Induction in Human Cells ([3]; Dose Concentration 0.10 μg/mL): − | Interferon (α) Induction in Human Cells ([3]; Dose Concentration 0.50 μg/mL): − | Interferon (α) Induction in Human Cells ([3]; Dose Concentration 1.0 μg/mL): + | Interferon (α) Induction in Human Cells ([3]; Dose Concentration 5.0 μg/mL): + | melting point: 183 to 185 °C

CCc1nc2c(N)nc3ccccc3c2s1 [Example 8, 2-Ethylthiazolo[4,5-c]quinolin-4-amine]
Interferon (α) Induction in Human Cells ([3]; Dose Concentration 0.01 μg/mL): − | Interferon (α) Induction in Human Cells ([3]; Dose Concentration 0.05 μg/mL): − | Interferon (α) Induction in Human Cells ([3]; Dose Concentration 0.10 μg/mL): − | Interferon (α) Induction in Human Cells ([3]; Dose Concentration 0.50 μg/mL): + | Interferon (α) Induction in Human Cells ([3]; Dose Concentration 1.0 μg/mL): + | Interferon (α) Induction in Human Cells ([3]; Dose Concentration 5.0 μg/mL): + | melting point: 170 to 172 °C and 169 to 171 °C

Cc1nc2c(N)nc3ccccc3c2o1 [Example 38, 2-Methyloxazolo[4,5-c]quinolin-4-amine]
Interferon (α) Induction in Human Cells ([3]; Dose Concentration 0.01 μg/mL): − | Interferon (α) Induction in Human Cells ([3]; Dose Concentration 0.05 μg/mL): − | Interferon (α) Induction in Human Cells ([3]; Dose Concentration 0.10 μg/mL): − | Interferon (α) Induction in Human Cells ([3]; Dose Concentration 0.50 μg/mL): + | Interferon (α) Induction in Human Cells ([3]; Dose Concentration 1.0 μg/mL): + | Interferon (α) Induction in Human Cells ([3]; Dose Concentration 5.0 μg/mL): + | melting point: 195 to 197 °C

Nc1nc2ccccc2c2sc(/C=C/c3ccccc3)nc12 [Example 22, 2-(2-Phenyl-1-ethenyl)thiazolo[4,5-c]quinolin-4-amine]
Interferon (α) Induction in Human Cells ([3]; Dose Concentration 0.01 μg/mL): − | Interferon (α) Induction in Human Cells ([3]; Dose Concentration 0.05 μg/mL): − | Interferon (α) Induction in Human Cells ([3]; Dose Concentration 0.10 μg/mL): − | Interferon (α) Induction in Human Cells ([3]; Dose Concentration 0.50 μg/mL): − | Interferon (α) Induction in Human Cells ([3]; Dose Concentration 1.0 μg/mL): − | Interferon (α) Induction in Human Cells ([3]; Dose Concentration 5.0 μg/mL): − | Interferon (α) Induction in Human Cells ([3]; Dose Concentration 10.0 μg/mL): + | Interferon (α) Induction in Human Cells ([3]; Dose Concentration 25.0 μg/mL): + | Interferon (α) Induction in Human Cells ([3]; Dose Concentration 50.0 μg/mL): + | melting point: 239 to 241 °C

CCCc1nc2c(N)nc3cc(C)ccc3c2o1 [Example 47, 7-Methyl-2-propyloxazolo[4,5-c]quinolin-4-amine]
Interferon (α) Induction in Human Cells ([3]; Dose Concentration 0.01 μg/mL): − | Interferon (α) Induction in Human Cells ([3]; Dose Concentration 0.05 μg/mL): + | Interferon (α) Induction in Human Cells ([3]; Dose Concentration 0.10 μg/mL): + | Interferon (α) Induction in Human Cells ([3]; Dose Concentration 0.50 μg/mL): + | Interferon (α) Induction in Human Cells ([3]; Dose Concentration 1.0 μg/mL): + | Interferon (α) Induction in Human Cells ([3]; Dose Concentration 5.0 μg/mL): + | melting point: 188 to 189 °C

Cc1nc2c(N)nc3ccccc3c2s1 [Example 2, 2-Methylthiazolo[4,5-c]quinolin-4-amine]
Interferon (α) Induction in Human Cells ([3]; Dose Concentration 0.01 μg/mL): − | Interferon (α) Induction in Human Cells ([3]; Dose Concentration 0.05 μg/mL): − | Interferon (α) Induction in Human Cells ([3]; Dose Concentration 0.10 μg/mL): ± | Interferon (α) Induction in Human Cells ([3]; Dose Concentration 0.50 μg/mL): + | Interferon (α) Induction in Human Cells ([3]; Dose Concentration 1.0 μg/mL): + | Interferon (α) Induction in Human Cells ([3]; Dose Concentration 5.0 μg/mL): + | melting point: 184 to 187 °C and 184 to 186 °C

CCCc1nc2c(N)nc3cc(C(F)(F)F)ccc3c2s1 [Example 50, 2-Propyl-7-(trifluoromethyl)thiazolo[4,5-c]quinolin-4-amine]
Interferon (α) Induction in Human Cells ([3]; Dose Concentration 0.10 μg/mL): − | Interferon (α) Induction in Human Cells ([3]; Dose Concentration 0.50 μg/mL): + | Interferon (α) Induction in Human Cells ([3]; Dose Concentration 1.0 μg/mL): + | Interferon (α) Induction in Human Cells ([3]; Dose Concentration 5.0 μg/mL): + | Interferon (α) Induction in Human Cells ([3]; Dose Concentration 10.0 μg/mL): + | Interferon (α) Induction in Human Cells ([3]; Dose Concentration 25.0 μg/mL): + | Interferon (α) Induction in Human Cells ([3]; Dose Concentration 50.0 μg/mL): + | melting point: 215 to 216 °C
